Results as given in US8183364B2, “Substituted porphyrins” (Duke University, priority 2004, dated 2012).
Entries after “also recorded” stand apart in the source; their conditions may differ. Marks after values point to notes of the source that are not given here.

What was measured:
[1] = Oxidative degradation in the presence of ascorbic acid under aerobic conditions; assay type: physicochemical; settings: pH 7.8 (0.05 M tris buffer)
Protocol: Under these conditions porphyrins underwent oxidative degradation. As previously observed (Batinic-Haberle et al, J. Chem. Soc., Dalton Trans., pgs. 2689-2696 (2002)), those porphyrins that are of more positive E1/2 are stabilized in +2 oxidation state and are less prone to oxidative damage. Accordingly, 27% and 24% of MnTE-2-PyP^5+ and MnTMOE-2-PyP^5+ undergo degradation within 2 hours, but only 2% of MnTM,MOE-2-ImP^5+ and MnTDMOE-2-ImP^5+ and 3% of MnTDE-2-ImP^5+.

[2] = Kinetic salt effect on O2.^− dismutation by cytochrome c assay; assay type: biochemical; settings: 0.05 M phosphate buffer, pH 7.8, 0-0.4 M NaCl
Protocol: Kinetic salt effect. The dependence of the catalytic rate constant for the O2.^− dismutation upon ionic strength was determined by cytochrome c assay (McCord and Fridovich, J. Biol. Chem. 244:6049 (1969)) in 0.05 M phosphate buffer, pH 7.8 with NaCl ranging from 0 to 0.4 M. In doing this, the effect of ionic strength on the rate of the O2.^−/cytochrome c reaction was corrected for.
Kinetic salt effect. The effect of the ionic strength (μ) on the catalytic rate constant was assessed using eq which is based on Debye-Huckel relation (Hambright et al, J. Porphyrins Phthalocyanines 7:139-146 (2003)) for the effect of the ionic strength of the solution on the activity coefficient of an ion. log k=log kref+2AzAzBμ^1/2/(1+μ^1/2) The k is the rate constant at any given ionic strength, while kref is the rate constant at μ=0. The A is a collection of physical constants with a value of 0.509 and zA and zB are the charges of the reacting species. The equation predicts a linear plot of log k vs μ^1/2/(1+μ^1/2). Eq assumes a coefficient of 1.0 (βai) for μ^1/2 in the denominator, i.e., the distance of the closest approach, ai to be 3 A and β is a physical constant, […]. It is doubtful whether great significance can be attributed to the ai, thus to the product zAzB (Hambright et al, J. Porphyrins Phthalocyanines 7:139-146 (2003)), especially so in the light of the bulkiness, high charge and solvation shell of the metalloporphyrins. Accounting for the mono- and diprotonated phosphates as the major species at pH 7.8 (pKa=7.2), and the concentration of the NaCl, the ionic strength was calculated using equation μ=½ Σ mizi^2 where mi is the molality and zi the charge of the given ion.
The slopes of the plots are −6.48 (MnTE-2-PyP^5+), −7.02 (MnTMOE-2-PyP^5+), −7.38 (MnTDMOE-2-ImP^5+), and −4.15 (MnTnBu-2-PyP^5+). As expected (Hambright et al, J. Porphyrins Phthalocyanines 7:139-146 (2003)), when the reactants are ions of opposite charges, the higher the ionic strength of the solution the lower the rate constants, i.e. the slopes are negative. The slopes of the plots indicate clearly the impact of the local dielectric constant on the kcat. The kcat of the most lipophilic compound, MnTnBu-2-PyP^5+ is 40% less sensitive to the changes in ionic strength of the solution than is the kcat of its methoxyethyl analogue, MnTMOE-2-PyP^5+.

[3] = system: SOD-deficient JI132 E. coli; test: Aerobic growth of SOD-deficient E. coli; assay type: cell-based
Protocol: (§1) Aerobic growth of E. coli. Bacterial strains of E. coli used were wild type AB1157 (F-thr-1 leu-1 proA2 his-4 argE3 thr-1 lacY1 galK2 rpsL supE44 ara-14 xyl-15 mtl-1 tsx-33) and SOD-deficient JI132 (same as AB1157 plus (sodA::mudPR13)25 (sodB-kan)1-Δ2. Culture media were prepared as follows. M9 medium: 6 g/L Na2HPO4, 3 g/L KH2PO4, 0.5 g/L NaCl, 1 g/L NH4Cl, 2 mM MgSO4, 0.1 mM CaCl2, adjusted to pH 7.4 with NaOH, and supplemented with 0.2% glucose, 3 mg/L each of D-panthotenic acid and thiamine. M9CA medium contained M9 medium plus 0.2% casamino acids. 5-amino acid (5AA) minimal medium contained M9 medium plus 0.5 mM each of threonine, leucine, histidine, proline and arginine (Faulkner et al, J. Biocl. Chem. 269:23471 (1994)).
(§2) AB 1157 and 31132 were precultured overnight aerobically in M9CA medium at 37° C. and were then diluted to 3×10^7 cells/mL into 5 mL M9CA medium. JI132 was precultured in the presence of 20 μg/mL chloramphenicol and 500 μg/mL kanamycin. When the cells are transferred from M9CA medium to 5AA minimal medium cultures were first centrifuged and washed twice with the 5AA medium before final dilution in it. The centrifugation was conducted at room temperature to avoid temperature shocks. Cultures without and with Mn porphyrins (0.1 to 30 μM) were grown aerobically in 5 mL volume in test tubes in a thermostated orbital shaker (45° angle, 200 rpm) at 37° C.). Rates of growth were followed turbidimetrically at 700 nm to minimize interference from the absorbance of test compounds.

[4] = cited from earlier work; for Metal-centered redox potential E1/2: Mn(III)/Mn(II), 0.1 M NaCl, 0.05 M phosphate buffer, pH 7.8, data from Batinic-Haberle et al 2002
[5] = pH 7.8, (22 ± 1) °C; data from Batinic-Haberle et al 2002 (MnTE-2-PyP: Inorg. Chem. 40:726 (2001)); cited from earlier work
[6] = data from Batinic-Haberle et al 2002, cited from earlier work; for Rf (compound path/solvent path), metal-free porphyrin (in parenthesis): metal-free ligand of the named Mn porphyrin; for Rf (compound path/solvent path), Mn complex: silica gel TLC, KNO3-saturated H2O/H2O/acetonitrile = 1/1/8
wild type AB1157 E. coli = test: Aerobic growth of wild type E. coli (toxicity); assay type: cell-based; settings: for toxicity to E. coli at 100-fold lower concentration: 0.3 μM; for growth of wild type E. coli: 5AA minimal medium; for toxicity to wild type E. coli / concentration at which toxicity on the parental (wild type) strain is exerted / becomes observable: M9CA medium; for toxicity to wild type E. coli: 30 μM (up to 30 μM); for concentration at which toxicity on the parental (wild type) strain is exerted / becomes observable: range 0.1 to 30 μM
Protocol: as §1, §2

[7] = previously observed (Batinic-Haberle et al 2002), compared with imidazolyl porphyrins; cited from earlier work
[8] = Thin-layer chromatography on silica gel (retention factor Rf, lipophilicity); assay type: physicochemical; settings: Rf; vs methyl porphyrin
Protocol: Uv/vis spectra of porphyrin ligands and their Mn complexes were taken on a Shimadzu UV-2501-PC spectrophotometer at 25° C. Thin-layer chromatography of ligands and Mn complexes was done using silica gel plates with KNO3satH2O/H2O/acetonitrile=1/1/8.
Thin-layer chromatography. All new methoxyporphyrins are more lipophilic than MnTE-2-PyP^5+ and MnTDE-2-ImP^5+.

[9] = pH 7.8; cited from earlier work

Compound	aerobic growth of SOD-deficient E. coli ([3]; 5AA minimal medium, 25 μM)	Metal-centered redox potential E1/2 [4]	log kcat for O2^− dismutation [5]	Rf (compound path/solvent path), metal-free porphyrin (in parenthesis) [6]	Rf (compound path/solvent path), Mn complex [6]	toxicity to E. coli at 100-fold lower concentration (wild type AB1157 E. coli)	growth of wild type E. coli (wild type AB1157 E. coli; 3 μM)	growth of wild type E. coli (wild type AB1157 E. coli; up to 25 μM)	concentration at which toxicity on the parental (wild type) strain is exerted / becomes observable (wild type AB1157 E. coli) [nM]	stability towards oxidative degradation [7]	further results
CC[n+]1ccccc1-c1c2nc(c(-c3cccc[n+]3CC)c3ccc([n-]3)c(-c3cccc[n+]3CC)c3nc(c(-c4cccc[n+]4CC)c4ccc1[n-]4)C=C3)C=C2.[Mn+3] [MnTE-2-PyP^5+]	most effective	+228 mV vs NHE	7.73^e	0.21	0.13	–	–	–	–	–	degradation within 2 hours [1]: 27%; slope of log kcat vs μ^1/2/(1+μ^1/2) [2]: −6.48; protection of SOD-deficient E. coli ([3]; M9CA medium, 1 μM): low protection; protection of SOD-deficient E. coli ([3]; M9CA medium, 30 μM): either much higher or near full protection; facilitation of aerobic growth of SOD-deficient E. coli, dependence on concentration ([3]; M9CA medium, 1-30 μM): concentration-dependent manner
CCCCCC[n+]1ccccc1-c1c2nc(c(-c3cccc[n+]3CCCCCC)c3ccc([n-]3)c(-c3cccc[n+]3CCCCCC)c3nc(c(-c4cccc[n+]4CCCCCC)c4ccc1[n-]4)C=C3)C=C2.[Mn+3] [MnTnHex-2-PyP^5+]	failed to do so	+314 mV vs NHE	7.48	0.63	0.57	mostly eliminated	slowed the growth	toxic	3000	same level of stability	aerobic growth of SOD-deficient E. coli ([3]; 5AA minimal medium, 3 μM): most effective; protection of SOD-deficient E. coli at 0.3 μM compared with 10 μM methyl, ethyl (and MnTDMOE-2-ImP) porphyrins ([3]; M9CA medium, listed as n-hexyl): equally protective; also recorded: the same level of protection; aerobic growth of SOD-deficient E. coli ([3]; M9CA medium, 1 and 3 μM): most effective; aerobic growth of SOD-deficient E. coli ([3]; M9CA medium, 10 and 30 μM): progressively less effective; toxicity to wild type E. coli (wild type AB1157 E. coli; listed as n-hexyl): prevented wild type E. coli to grow; also recorded: prevent wild type E. coli from growing
CCCCCCCC[n+]1ccccc1-c1c2nc(c(-c3cccc[n+]3CCCCCCCC)c3ccc([n-]3)c(-c3cccc[n+]3CCCCCCCC)c3nc(c(-c4cccc[n+]4CCCCCCCC)c4ccc1[n-]4)C=C3)C=C2.[Mn+3] [MnTnOct-2-PyP^5+]	–	+367 mV vs NHE	7.71	0.86	0.08	mostly eliminated	completely inhibited growth	toxic	300	same level of stability	lipophilicity higher than methyl porphyrin [8]: ~10 fold; protection of SOD-deficient E. coli at 0.3 μM compared with 10 μM methyl, ethyl (and MnTDMOE-2-ImP) porphyrins ([3]; M9CA medium, listed as n-octyl): equally protective; also recorded: the same level of protection; concentration at which the compound facilitates growth of SOD-deficient strain (utility) ([3]; M9CA medium, range 0.1 to 30 μM): ≤ 0.3 µM; protection of SOD-deficient E. coli higher than methyl porphyrin ([3]; vs methyl porphyrin): 30 fold; toxicity to wild type E. coli (wild type AB1157 E. coli; listed as n-octyl): prevented wild type E. coli to grow; also recorded: prevent wild type E. coli from growing; toxicity of metal-free vs Mn(III) complex (wild type AB1157 E. coli; separate experiment): equally toxic
Cu,Zn-SOD: superoxide dismutase enzyme	–	–	–	–	–	–	–	–	–	–	E1/2 ([4]; literature value for the enzyme): ~+300 mV vs NHE; equal rate constants of reduction and oxidation of O2.^− [9]: 2e+09 M⁻¹ s⁻¹
